Laboratory results: article PMC9489553, “Biochemical and clinical studies of putative allergens to assess what distinguishes them from other non-allergenic proteins in the same family” (Transgenic Research, 2022)

Molecular target: T1, ChMDH (Cladosporium herbarum, UniProt P0C0Y5)
T1 construct: full length, codon-optimised synthetic gene, pET-28a, E. coli BL21(DE3), N-terminal His-tag cleaved, tetramer
Test: X-ray crystal structure, […] Å
Assay type: binding
Details: co-crystallised with 5 mM NADP+, pH 7.0, 4 °C; active site

T1 sequence (P0C0Y5 whole entry): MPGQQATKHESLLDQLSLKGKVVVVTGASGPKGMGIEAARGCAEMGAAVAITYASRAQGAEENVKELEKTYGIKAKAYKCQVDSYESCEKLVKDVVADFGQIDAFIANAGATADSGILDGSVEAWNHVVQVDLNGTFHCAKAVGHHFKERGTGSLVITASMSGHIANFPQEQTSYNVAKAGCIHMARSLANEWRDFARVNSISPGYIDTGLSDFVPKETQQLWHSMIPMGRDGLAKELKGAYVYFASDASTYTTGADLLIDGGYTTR

NC(=O)c1ccc[n+]([C@@H]2O[C@H](COP(=O)(O)OP(=O)(O)OC[C@H]3O[C@@H](n4cnc5c(N)ncnc54)[C@H](OP(=O)(O)O)[C@@H]3O)[C@@H](O)[C@H]2O)c1 [NADP^+]
X-ray crystal structure, 2.04 Å: ChMDH (the third orphan allergen selected for study) in complex with NADP^+ was determined
